Read-outs that look alike come from different tables or passages of the source.
Tests used:
EGFR (L858R T790M C797S) = biological target: T1, EGFR (L858R T790M C797S) (Homo sapiens, UniProt P00533, C797S/L858R/T790M); experiment: Biochemical EGFR inhibition assay (Caliper mobility shift), EGFR LRTMCS; conditions: LRTMCS (PH) IC50 (nM) @ 1 mM ATP (Num), EGFR LRTMCS mutant
T1 construct: purchased SignalChem E10-122VG
Procedure, shortened: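 Each enzyme was allowed to phosphorylate 10–20% of its peptide at 25° C. before EDTA (35 mM) quench. Separated substrate and product peaks were measured by mobility shift, giving apparent IC50 values.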

[1] = biological target: T2, intracellular phosphorylation of EGFR in NCI-H1975 cell line that harbors the EGFR L858R T790M mutations (Homo sapiens, UniProt P00533, L858R/T790M); experiment: NCI-H1975 pEGFR AlphaLISA assay; type: cell-based; conditions: NCI-H1975 cells (EGFR L858R T790M), p-EGFR (Tyr1068), 4-5 hours incubation
T2 construct: NCI-H1975 cell line that harbors the EGFR L858R T790M mutations (ATCC, CRL-5908); host or cells: NCI-H1975
Protocol: On the next day, the test compounds and DMSO control were added into H1975 cell plate followed by incubation at 37C/5% CO2 for 4-5 hours. […] Then 5 μL of a donor bead mix was added to each well followed by overnight incubation at room temperature in dark. On the next day, the plate was read at a compatible plate reader to obtain pEGFR signal. Percent of pEGFR inhibition was plotted against log concentration of compounds to generate IC50 values.

[2] = read-out: Ext pEGFR H1975 GMean IC50 (nM) Protocol: @Pharmaron AlphaLISA (Num)

T1 sequence (P00533 25-1210 T790M/C797S/L858R): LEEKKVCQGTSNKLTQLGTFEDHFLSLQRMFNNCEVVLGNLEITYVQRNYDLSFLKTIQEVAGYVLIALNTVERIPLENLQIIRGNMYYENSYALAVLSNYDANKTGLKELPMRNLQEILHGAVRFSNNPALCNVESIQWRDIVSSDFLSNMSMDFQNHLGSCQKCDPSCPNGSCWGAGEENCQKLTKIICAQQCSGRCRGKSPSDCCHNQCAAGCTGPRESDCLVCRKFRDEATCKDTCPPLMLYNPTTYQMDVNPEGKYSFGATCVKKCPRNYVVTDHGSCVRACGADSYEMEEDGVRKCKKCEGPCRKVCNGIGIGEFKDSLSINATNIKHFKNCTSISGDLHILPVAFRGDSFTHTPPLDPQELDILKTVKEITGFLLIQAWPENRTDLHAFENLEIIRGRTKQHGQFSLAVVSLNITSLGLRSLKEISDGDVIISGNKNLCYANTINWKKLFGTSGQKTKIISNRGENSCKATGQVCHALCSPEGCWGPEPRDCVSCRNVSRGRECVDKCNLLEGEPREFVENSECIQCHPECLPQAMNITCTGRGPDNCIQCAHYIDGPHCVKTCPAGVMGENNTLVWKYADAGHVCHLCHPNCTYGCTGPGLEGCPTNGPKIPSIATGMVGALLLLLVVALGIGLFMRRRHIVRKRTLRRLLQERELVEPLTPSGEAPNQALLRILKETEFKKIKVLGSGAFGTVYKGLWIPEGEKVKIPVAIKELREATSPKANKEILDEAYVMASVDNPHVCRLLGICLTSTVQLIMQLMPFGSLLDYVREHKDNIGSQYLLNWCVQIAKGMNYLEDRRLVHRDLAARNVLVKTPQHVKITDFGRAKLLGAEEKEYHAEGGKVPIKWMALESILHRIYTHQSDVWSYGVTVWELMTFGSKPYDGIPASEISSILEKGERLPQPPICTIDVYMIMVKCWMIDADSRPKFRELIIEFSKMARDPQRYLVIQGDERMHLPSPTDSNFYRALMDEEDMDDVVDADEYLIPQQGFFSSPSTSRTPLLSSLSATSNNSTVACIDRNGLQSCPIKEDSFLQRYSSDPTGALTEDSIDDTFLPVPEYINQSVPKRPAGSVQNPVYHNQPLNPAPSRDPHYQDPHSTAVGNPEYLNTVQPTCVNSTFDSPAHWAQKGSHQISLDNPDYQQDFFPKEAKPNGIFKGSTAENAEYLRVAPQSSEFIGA
T2 sequence (P00533 25-1210 T790M/L858R): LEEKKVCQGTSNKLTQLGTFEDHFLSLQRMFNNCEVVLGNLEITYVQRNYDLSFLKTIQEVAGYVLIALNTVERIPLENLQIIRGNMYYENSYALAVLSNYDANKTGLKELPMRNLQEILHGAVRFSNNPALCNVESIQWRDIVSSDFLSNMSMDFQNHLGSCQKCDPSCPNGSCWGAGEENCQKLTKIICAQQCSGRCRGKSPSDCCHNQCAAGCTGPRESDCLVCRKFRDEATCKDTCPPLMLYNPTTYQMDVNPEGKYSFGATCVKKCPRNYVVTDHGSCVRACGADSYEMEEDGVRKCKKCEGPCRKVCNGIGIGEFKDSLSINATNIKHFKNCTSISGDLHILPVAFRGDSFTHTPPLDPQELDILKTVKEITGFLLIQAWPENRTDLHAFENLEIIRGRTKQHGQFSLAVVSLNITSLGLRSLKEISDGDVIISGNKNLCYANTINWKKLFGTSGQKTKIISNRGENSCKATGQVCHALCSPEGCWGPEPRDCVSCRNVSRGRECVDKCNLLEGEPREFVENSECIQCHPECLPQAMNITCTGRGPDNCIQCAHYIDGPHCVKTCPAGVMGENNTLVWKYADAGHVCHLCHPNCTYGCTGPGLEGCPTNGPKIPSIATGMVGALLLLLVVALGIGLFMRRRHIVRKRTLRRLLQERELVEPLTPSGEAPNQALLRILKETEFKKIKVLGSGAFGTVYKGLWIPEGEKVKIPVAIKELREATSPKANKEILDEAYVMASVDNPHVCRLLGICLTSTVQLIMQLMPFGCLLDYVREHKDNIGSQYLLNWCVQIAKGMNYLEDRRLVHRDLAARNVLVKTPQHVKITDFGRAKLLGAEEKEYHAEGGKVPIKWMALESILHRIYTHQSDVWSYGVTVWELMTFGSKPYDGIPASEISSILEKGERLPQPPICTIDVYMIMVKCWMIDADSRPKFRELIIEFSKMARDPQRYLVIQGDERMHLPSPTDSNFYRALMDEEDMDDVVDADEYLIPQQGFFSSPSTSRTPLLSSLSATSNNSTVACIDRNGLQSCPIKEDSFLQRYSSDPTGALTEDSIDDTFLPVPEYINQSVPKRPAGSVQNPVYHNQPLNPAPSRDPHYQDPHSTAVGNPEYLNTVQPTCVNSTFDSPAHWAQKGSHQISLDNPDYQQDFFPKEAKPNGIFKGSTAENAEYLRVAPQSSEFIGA

| Structure (SMILES) | IC50 (EGFR (L858R T790M C797S)) [nM] | IC50 [1, 2] [nM] | IC50 ([1]; Ext pEGFR H1975 GMean IC50 (nM) Protocol: @Pharmaron AlphaLISA (Num)) [nM] |
| --- | --- | --- | --- |
| CC(C)c1cnc(N2Cc3cnn(C)c3C2)c2cnc(Nc3ccnc(N4CC[C@@H](O)[C@@](C)(F)C4)n3)cc12 [Example 90, (3S,4R)-3-fluoro-1-(4-((5-isopropyl-8-(1-methyl-4,6-dihydropyrrolo[3,4-c]pyrazol-5(1H)-yl)-2,7-naphthyridin-3-yl)amino)pyrimidin-2-yl)-3-methylpiperidin-4-ol] | < 15 | 30 to 50 | – |
| CC(C)c1cnc(N2CC(N3CCCC3=O)C2)c2cnc(Nc3ccnc(N4CC[C@@H](O)[C@@](C)(F)C4)n3)cc12 [Example 91, 1-(1-(6-((2-((3S,4R)-3-fluoro-4-hydroxy-3-methylpiperidin-1-yl)pyrimidin-4-yl)amino)-4-isopropyl-2,7-naphthyridin-1-yl)azetidin-3-yl)pyrrolidin-2-one] | 15 to 20 | > 50 | – |
| CC(C)c1cnc(N2CC(F)(C(=O)N(C)C)C2)c2cnc(Nc3ccnc(N4CC[C@@H](O)[C@@](C)(F)C4)n3)cc12 [Example 92, 3-fluoro-1-(6-((2-((3S,4R)-3-fluoro-4-hydroxy-3-methylpiperidin-1-yl)pyrimidin-4-yl)amino)-4-isopropyl-2,7-naphthyridin-1-yl)-N,N-dimethylazetidine-3-carboxamide] | 15 to 20 | 30 to 50 | – |
| CC(C)c1cnc(N2CC(C)(C(=O)N(C)C)C2)c2cnc(Nc3ccnc(N4CC[C@@H](O)[C@@](C)(F)C4)n3)cc12 [Example 93, 1-(6-((2-((3S,4R)-3-fluoro-4-hydroxy-3-methylpiperidin-1-yl)pyrimidin-4-yl)amino)-4-isopropyl-2,7-naphthyridin-1-yl)-N,N,3-trimethylazetidine-3-carboxamide] | < 15 | 10 to 20 | – |
| CC(C)c1cnc(N2CC(N=S(C)(C)=O)C2)c2cnc(Nc3ccnc(N4CC[C@@H](O)[C@@](C)(F)C4)n3)cc12 [Example 94, ((1-(6-((2-((3S,4R)-3-fluoro-4-hydroxy-3-methylpiperidin-1-yl)pyrimidin-4-yl)amino)-4-isopropyl-2,7-naphthyridin-1-yl)azetidin-3-yl)imino)dimethyl-l6-sulfanone] | < 15 | 20 to 30 | – |
| COP(=O)(CC1CN(c2ncc(C(C)C)c3cc(Nc4ccnc(N5CC[C@@H](O)[C@@](C)(F)C5)n4)ncc23)C1)OC [Example 96, dimethyl ((1-(6-((2-((3S,4R)-3-fluoro-4-hydroxy-3-methylpiperidin-1-yl)pyrimidin-4-yl)amino)-4-isopropyl-2,7-naphthyridin-1-yl)azetidin-3-yl)methyl)phosphonate] | 20 to 30 | – | 20 to 30 |
| CC(C)c1cnc(N2CC3(CCS3(=O)=O)C2)c2cnc(Nc3ccnc(N4CC[C@@H](O)[C@@](C)(F)C4)n3)cc12 [Example 98, 6-(6-((2-((3S,4R)-3-fluoro-4-hydroxy-3-methylpiperidin-1-yl)pyrimidin-4-yl)amino)-4-isopropyl-2,7-naphthyridin-1-yl)-1-thia-6-azaspiro[3.3]heptane 1,1-dioxide] | < 15 | 10 to 20 | – |
| CC(C)c1cnc(N2CC3(CCN(C)C3=O)C2)c2cnc(Nc3ccnc(N4CC[C@@H](O)[C@@](C)(F)C4)n3)cc12 [Example 99, 2-(6-((2-((3S,4R)-3-fluoro-4-hydroxy-3-methylpiperidin-1-yl)pyrimidin-4-yl)amino)-4-isopropyl-2,7-naphthyridin-1-yl)-6-methyl-2,6-diazaspiro[3.4]octan-5-one] | 30 to 100 | 30 to 50 | – |
| CC(C)c1cnc(N2CC(C[S+]([O-])C(F)(F)F)C2)c2cnc(Nc3ccnc(N4CC[C@@H](O)[C@@](C)(F)C4)n3)cc12 (stereo partly drawn) [Example 100, (3S,4R)-3-fluoro-1-(4-((5-isopropyl-8-(3-(((trifluoromethyl)sulfinyl)methyl)azetidin-1-yl)-2,7-naphthyridin-3-yl)amino)pyrimidin-2-yl)-3-methylpiperidin-4-ol] | < 15 | 10 to 20 | – |

From patent publication US20240382483A1, “HETEROCYCLIC EGFR INHIBITORS FOR USE IN THE TREATMENT OF CANCER” (Blueprint Medicines Corporation, priority 2021, published 2024)
